Measurements reported in patent publication US20230285606A1, “METHODS AND AGENTS FOR THE DETECTION AND TREATMENT OF CANCER” (CASE WESTERN RESERVE UNIVERSITY, priority 2020, published 2023).
No end group written: not given here.

Experiments:
[1] = tested on: heterotopic xenograft flank U87 tumor implants; assay: In vivo fluorescence imaging of heterotopic xenograft U87 flank tumors; conditions: mice with U87 flank tumors; fluorophore-conjugated peptide injected via tail vein; FIG. 1/FIG. 2
Description: (§1) The human U87-MG and LN-229 glioma cell line was purchased from American Type Culture Collection (Manassas, Va., USA) and cultured. NIH athymic nude mice (5-8 weeks and 20-25 g on arrival; NCI-NIH) were maintained at the Athymic Animal Core Facility at Case Western Reserve University according to institutional policies. All animal protocols were approved by the Institutional Animal Care and Use Committee (IACUC). The cells were diluted in a 1:1 mixture of PBS and BD MATRIGEL Matrix (BD Biosciences, Franklin Lakes, N.J., USA), and injected into the right flank of nude athymic mice (NCr-nu/+, NCr-nu/nu, 20-25 g each). The Matrigel-cell mixture was loaded into a 1-ml syringe fitted with a 26-gauge needle and kept on ice. The mixture was injected subcutaneously in the right flank region of the mouse. Flank tumors were grown for 2 to 3 weeks. Each flank was implanted with 1.4-2×10^6 cells. To correlate tumor position with GFP fluorescence, mice were imaged using the Perkin-Elmer MAESTRO FLEX In vivo Imaging System. For in vivo analyses, the mice were anesthetized with inhaled isoflurane/oxygen and imaged. For ex vivo analyses, mice were sacrificed by decapitation. […]
(§2) Nude mice with heterotopic (flank) tumors were typically imaged 3 to 6 weeks following tumor initiation. […] Average radiant intensity units, calculated by the LivingImage software, were obtained for each ROI. […]

[2] = tested on: heterotopic xenograft flank U87 tumor implants overexpressing PTPmu; assay: In vivo fluorescence imaging of heterotopic xenograft U87 flank tumors overexpressing PTPmu; conditions: mice with U87 flank tumors overexpressing PTPmu; FIG. 2
Description: as §1, §2

| Substance | in vivo average radiant efficiency [1] | in vivo average radiant efficiency [2] |
| --- | --- | --- |
| Peptide 3: SBK linked to a fluorophore with a glycine/serine spacer (GEGDDFNWEQVNTLTKPTSD; also: fluorophore linked via glycine/serine spacer, not defined) | increased average radiant efficiency compared to the second agent | increased average radiant efficiency compared to the second agent |
| Peptide 2: SBK linked to a fluorophore with a polyglycine peptide spacer (GEGDDFNWEQVNTLTKPTSD; also: fluorophore linked via polyglycine spacer, not defined) | increased average radiant efficiency compared to the first agent, without a spacer, and the control agent |  |
